17 compounds from patent US9957257B2, “Amide compounds as 5-HT4 receptor agonists” (SUVEN LIFE SCIENCES LIMITED, priority 2015, dated 2018) can be followed below.

Several values for one entry are separate records, joined by “and”; a condition that tells them apart may be missing. Equal entries are not always repeated. Structures can show the parent of a compound that is named as a salt.

This test deals with T1, recombinant human 5-HT4 receptor (Homo sapiens, UniProt Q13639).
T1 construct: expressed in transfected cells
T1 sequence (Q13639 whole entry): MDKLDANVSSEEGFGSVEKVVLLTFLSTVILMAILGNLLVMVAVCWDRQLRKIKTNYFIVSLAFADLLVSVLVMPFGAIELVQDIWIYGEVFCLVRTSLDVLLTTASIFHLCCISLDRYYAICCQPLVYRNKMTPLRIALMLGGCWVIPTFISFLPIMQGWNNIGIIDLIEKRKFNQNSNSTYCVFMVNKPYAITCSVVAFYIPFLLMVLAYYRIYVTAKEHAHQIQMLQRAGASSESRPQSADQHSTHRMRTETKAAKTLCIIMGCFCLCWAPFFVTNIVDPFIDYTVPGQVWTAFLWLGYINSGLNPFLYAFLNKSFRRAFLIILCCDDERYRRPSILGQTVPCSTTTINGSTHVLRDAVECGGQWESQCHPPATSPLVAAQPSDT
Description: Determination of EC50 values for 5-HT4 receptor (CHO cells, pCRE-Luc reporter). The format is cell-based. The following applies: luciferase reporter, 4 hours incubation, read-out: 5-HT4 receptor agonistic binding in-vitro EC50. Here is the method: A stable CHO cell line expressing recombinant human 5-HT4 receptor and pCRE-Luc reporter system was used for cell-based assay. The assay offers a non-radioactive based approach to determine binding of a compound to GPCRs. In this specific assay, the level of intracellular cyclic AMP, which is modulated by activation, or inhibition of the receptor is measured. The recombinant cells harbor luciferase reporter gene under the control of cAMP response element.
The above cells were grown in 96 well clear bottom white plates in Hams F12 medium containing 10% fetal bovine serum (FBS). Prior to the addition of compounds or standard agonist, cells were serum starved overnight. Increasing concentrations of test compounds were added in OptiMEM medium to the cells. The incubation was continued at 37° C. in CO2 incubator for 4 hours. Medium was removed and cells were washed with phosphate buffered saline. The cells were lysed and luciferase activity was measured in a Luminometer. Luminescence units were plotted against the compound concentrations using Graphpad software. EC50 values of the compounds were defined as the concentration required in stimulating the luciferase activity by 50%.
(Reporter assays use an easily measured gene product as a stand-in for the process of interest.)
As to `CC(C)(O)CN1CCC(CNC(=O)c2cc(Cl)c(N)c3c2OCCC3)CC1` [Example 40, 5-Amino-6-chloro-N-{[1-(2-hydroxy-2-methylpropyl)-4-piperidinyl]methyl}chroman-8-carboxamide], the EC50 (commonly the midpoint of the concentration-response curve) is no more than 1 nM.
Take `Cc1cc2c(N)c(Cl)cc(C(=O)NCC3C4CN(CC(C)(C)O)CC34)c2o1` (centres unmarked) [Example 54, 4-Amino-5-chloro-2-methyl-N-{[3-(2-hydroxy-2-methylpropyl)-3-azabicyclo[3.1.0]hex-6-yl]methyl}benzofuran-7-carboxamide]: the EC50 was 5.1 to 10 nM.
As for `COCCCN1CC2C(CNC(=O)c3cc(Cl)c(N)c4cc(C)oc34)C2C1` (centres unmarked) [Example 64, 4-Amino-5-chloro-2-methyl-N-{[3-(3-methoxypropyl)-3-azabicyclo[3.1.0]hex-6-yl]methyl}benzofuran-7-carboxamide hydrochloride], the EC50 was in the range of 1.1 to 5 nM.
For `CC(C)(O)CN1CC2C(CNC(=O)c3cc(Cl)c(N)c4ccoc34)C2C1` (stereo not drawn) [Example 51, 4-Amino-5-chloro-N-{[3-(2-hydroxy-2-methylpropyl)-3-azabicyclo[3.1.0]hex-6-yl]methyl}benzofuran-7-carboxamide L(+)-tartarate] the value was 10.1 to 20 nM; for `CC(C)(F)CN1CCC(F)(CNC(=O)c2cc(Cl)c(N)c3c2OCCC3)CC1` [Example 57, 5-Amino-6-chloro-N-{[1-(2-fluoro-2-methylpropyl)-4-fluoro-4-piperidinyl]methyl}chroman-8-carboxamide L(+)-tartarate], 5.1 to 10 nM; for `CC(C)(O)CN1CCC(F)(CNC(=O)c2cc(Cl)c(N)c3c2OCCC3)CC1` [Example 43, 5-Amino-6-chloro-N-{[4-fluoro-1-(2-hydroxy-2-methylpropyl)-4-piperidinyl]methyl}chroman-8-carboxamide], 1.1 to 5 nM.
For the compound `Nc1c(Cl)cc(C(=O)NCC2C3CN(CC4(O)CCOCC4)CC23)c2c1CCO2` (centres unmarked) [Example 35, 4-Amino-5-chloro-N-{[3-(4-hydroxytetrahydropyran-4-ylmethyl)-3-azabicyclo[3.1.0]hex-6-yl]methyl}-2,3-dihydrobenzofuran-7-carboxamide oxalate], the EC50 was in the range of 1.1 to 5 nM.
Regarding `COCCCN1CC2C(CNC(=O)c3cc(Br)c(N)c4c3OCC4)C2C1` (centres unmarked) [Example 65, 4-Amino-5-bromo-N-{[3-(3-methoxypropyl)-3-azabicyclo[3.1.0]hex-6-yl]methyl}-2,3-dihydrobenzofuran-7-carboxamide oxalate], the EC50 is 10.1 to 20 nM.
Take `Cc1cc2c(N)c(Cl)cc(C(=O)NCC3CCN(CC(C)(C)O)CC3)c2o1` [Example 52, 4-Amino-5-chloro-2-methyl-N-{[1-(2-hydroxy-2-methylpropyl)-4-piperidinyl]methyl}benzofuran-7-carboxamide L(+)-tartarate]: the EC50 is no more than 1 nM.
For `COCCCN1CC2C(CNC(=O)c3cc(Cl)c(N)c4ccoc34)C2C1` (centres unmarked) [Example 63, 4-Amino-5-chloro-N-{[3-(3-methoxypropyl)-3-azabicyclo[3.1.0]hex-6-yl]methyl}benzofuran-7-carboxamide hydrochloride] the value was 5.1 to 10 nM; for `COCC(C)(C)CN1CC2C(CNC(=O)c3cc(Cl)c(N)c4c3OCCC4)C2C1` (centres unmarked) [Example 60, 5-Amino-6-chloro-N-{[3-(3-methoxy-2,2-dimethylpropyl)-3-azabicyclo[3.1.0]hex-6-yl]methyl}chroman-8-carboxamide], ≤ 1 nM and 1.1 to 5 nM; for `Nc1c(Cl)cc(C(=O)NCC2(F)CCN(CC3CCOC3)CC2)c2c1CCCO2` (centres unmarked) [Example 10, 5-Amino-6-chloro-N-{[4-fluoro-1-(tetrahydro-3-furanylmethyl)-4-piperidinyl]methyl}chroman-8-carboxamide], 1.1 to 5 nM.
Turning to `CC(C)(O)CN1CCC(CNC(=O)c2cc(Br)c(N)c3c2OCCC3)CC1` [Example 46, 5-Amino-6-bromo-N-{[1-(2-hydroxy-2-methylpropyl)-4-piperidinyl]methyl}chroman-8-carboxamide L(+)-tartarate], the EC50 is no more than 1 nM.
For `CC(C)(O)CN1CCC(F)(CNC(=O)c2cc(Cl)c(N)c3ccoc23)CC1` [Example 38, 4-Amino-5-chloro-N-{[4-fluoro-1-(2-hydroxy-2-methylpropyl)-4-piperidinyl]methyl}benzofuran-7-carboxamide] the value was 5.1 to 10 nM.
For `CC(C)(O)CN1CC2C(CNC(=O)c3cc(Cl)c(N)c4c3OCC4)C2C1` (centres unmarked) [Example 42, 4-Amino-5-chloro-N-{[3-(2-hydroxy-2-methylpropyl)-3-azabicyclo[3.1.0]hex-6-yl]methyl}-2,3-dihydrobenzofuran-7-carboxamide oxalate] the value was 5.1 to 10 nM; for `Cc1cc2c(N)c(Cl)cc(C(=O)NCC3C4CN(CC5CCOCC5)CC34)c2o1` (centres unmarked) [Example 18, 4-Amino-5-chloro-2-methyl-N-{[3-(tetrahydro-2H-pyran-4-ylmethyl)-3-azabicyclo[3.1.0]hex-6-yl]methyl}benzofuran-7-carboxamide hydrochloride], 1.1 to 5 nM; for `COCCCN1CC2C(CNC(=O)c3cc(Cl)c(N)c4c3OCC4)C2C1` (centres unmarked) [Example 62, 4-Amino-5-chloro-N-{[3-(3-methoxypropyl)-3-azabicyclo[3.1.0]hex-6-yl]methyl}-2,3-dihydrobenzofuran-7-carboxamide oxalate], 1.1 to 5 nM.
